# According to patent publication US6596518B2, “Percyquinnin, a process for its production and its use as a pharmaceutical” (Aventis Pharma Deutschland GmbH, priority 2000, dated 2003):
# Experiment: Solubility (physico-chemical properties, Table 1)
# Type: physicochemical
# Conditions: solvents in which the compound is soluble
smiles,measurement,value
CC(C)=CCC12C(=O)OC1CC=C2CO (stereo not shown) [Percyquinnin],Solubility,"Methanol, DMSO"
